Assay results published in US20180305332A1, “Bispiperidinyl Derivatives as Liver X Receptor Beta Agonists, Compositions, and Their Use” (Merck Sharp & Dohme Corp., priority 2015, published 2018).

Tests used:
[1] = biological target: T1, GST tagged LXRalpha LBD (ligand binding domain) (Homo sapiens, UniProt Q13133); assay: LanthaScreen TR-FRET Liver X Receptor Coactivator Assay, LXR alpha-LBD; assay type: biochemical; settings: relative to reference T0901317; for LXR alpha IP (nM) / EC50: Inflection Point (potency), co-activator recruitment; for Emax: activity at max dose (efficacy), read-out: LXR alpha act @ max dose (%); for EC50: read-out: LXR alpha IP
T1 construct: purchased Invitrogen pv4655
T1 sequence (Q13133 209-447 limits assumed): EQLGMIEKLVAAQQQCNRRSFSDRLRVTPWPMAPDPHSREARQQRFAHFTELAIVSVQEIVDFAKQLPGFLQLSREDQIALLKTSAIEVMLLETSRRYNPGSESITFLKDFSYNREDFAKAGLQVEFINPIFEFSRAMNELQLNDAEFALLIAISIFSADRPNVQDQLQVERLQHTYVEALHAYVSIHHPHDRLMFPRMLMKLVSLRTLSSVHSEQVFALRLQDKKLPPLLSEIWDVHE
How it was run: (§1)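 LXR LBD protein mixed with test compound, then fluorescein-labelled coactivator peptide plus terbium anti-GST antibody added; after room-temperature incubation, TR-FRET read. Inflection point and Emax derived from coactivator recruitment relative to reference dual agonist T0901317.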

[2] = biological target: T2, GST tagged LXRbeta LBD (ligand binding domain) (Homo sapiens, UniProt P55055); assay: LanthaScreen TR-FRET Liver X Receptor Coactivator Assay, LXR beta-LBD; assay type: biochemical; settings: relative to reference T0901317; for EC50: Inflection Point (potency), co-activator recruitment, read-out: LXR beta IP; for Emax: activity at max dose (efficacy), read-out: LXR beta act @ max dose (%)
T2 construct: purchased Invitrogen pv4658.pps
T2 sequence (P55055 222-460 limits assumed): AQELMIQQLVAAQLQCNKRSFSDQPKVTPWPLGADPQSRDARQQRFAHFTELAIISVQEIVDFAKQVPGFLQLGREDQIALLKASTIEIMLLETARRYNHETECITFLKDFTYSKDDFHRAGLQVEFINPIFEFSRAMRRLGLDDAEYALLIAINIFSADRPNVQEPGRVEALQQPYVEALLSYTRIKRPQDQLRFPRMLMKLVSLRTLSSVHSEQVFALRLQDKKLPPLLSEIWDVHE
How it was run: as §1

Compound | LXR alpha IP (nM) [1] | Emax [1] [%] | EC50 [2] [µM] | Emax [2] [%] | EC50 [1] [µM]
Cc1cccc(C(O)(C(=O)N2CCC(C3CCN(c4ccc(C(=O)N(C)C)c(Cl)c4)CC3)CC2)C(F)(F)F)c1 (stereo not shown) [Example A-68, 2-chloro-N,N-dimethyl-4-{1′-[3,3,3-trifluoro-2-hydroxy-2-(3-methylphenyl)propanoyl]-4,4′-bipiperidin-1-yl}benzamide] | NO IP | 27 | 0.28 | 91 | 
COc1ccccc1C(C)(C)C(=O)N1CCC(C2CCN(c3ccc(C(=O)N(C)C)c(Cl)c3)CC2)CC1 [Example A-88, 2-chloro-4-{1′-[2-(2-methoxyphenyl)-2-methylpropanoyl]-4,4′-bipiperidin-1-yl}-N,N-dimethylbenzamide] |  | 37 | 0.074 | 101 | 1.08
COc1cccc(C2(C(=O)N3CCC(C4CCN(c5ccc(C(=O)N(C)C)c(Cl)c5)CC4)CC3)CCC2)c1 [Example A-93, 2-chloro-4-(1′-{[1-(3-methoxyphenyl)cyclobutyl]carbonyl}-4,4′-bipiperidin-1-yl)-N,N-dimethylbenzamide] |  | 22 | 0.171 | 100 | 2.27
Cc1ccc(C2(C(=O)N3CCC(C4CCN(c5ccc(C(=O)N(C)C)c(Cl)c5)CC4)CC3)CCC2)cc1 [Example A-72, 2-chloro-N,N-dimethyl-4-(1′-{[1-(4-methylphenyl)cyclobutyl]carbonyl}-4,4′-bipiperidin-1-yl)benzamide] |  | 30 | 0.112 | 96 | 1.26
CC(C)C(O)(C(=O)N1CCC(C2CCN(c3ccc(C(=O)N(C)C)c(Cl)c3)CC2)CC1)C(C)C [Example A-109, 2-chloro-4-{1′-[2-hydroxy-3-methyl-2-(1-methylethyl)butanoyl]-4,4′-bipiperidin-1-yl}-N,N-dimethylbenzamide] |  | 22 | 0.061 | 98 | 54.2

Results, then the compound that gave them:

LXR alpha IP (nM) [1] | Emax [1] [%] | EC50 [2] [µM] | Emax [2] [%] | EC50 [1] [µM] | Compound
NO IP | 39 | 0.297 | 52 |  | O=C(c1ccc(N2CCC(C3CCN(C(=O)[C@](O)(c4ccccc4)C(F)(F)F)CC3)CC2)cc1Cl)N1CC(n2cccn2)C1 [Example E-40, (2R)-3-[1′-(3-chloro-4-{[3-(1H-pyrazol-1-yl)azetidin-1-yl]carbonyl}phenyl)-4,4′-bipiperidin-1-yl]-1,1,1-trifluoro-3-oxo-2-phenylpropan-2-ol]
 | 69 | 0.065 | 140 | 0.684 | CN(C)C(=O)c1ccc(N2CCC(C3CCN(C(=O)C(C)(C)c4ccccc4)CC3)CC2)nc1Cl [Example B-12, 2-chloro-N,N-dimethyl-6-[1′-(2-methyl-2-phenylpropanoyl)-4,4′-bipiperidin-1-yl]pyridine-3-carboxamide]
 | 43 | 0.073 | 114 | 1.23 | CN(C)C(=O)c1ccc(N2CCC(C3CCN(C(=O)C4(c5ccccc5)CCC4)CC3)CC2)nc1Cl [Example B-14, 2-chloro-N,N-dimethyl-6-{1′-[(1-phenylcyclobutyl)carbonyl]-4,4′-bipiperidin-1-yl}pyridine-3-carboxamide]
 | 27 | 0.395 | 55 | 2.25 | O=C(c1ccc(N2CCC(C3CCN(C(=O)[C@](O)(c4ccccc4)C(F)(F)F)CC3)CC2)cc1Cl)N1CCC1CO (stereo partly drawn) [Example E-46, (2R)-3-[1′-(3-chloro-4-{[2-(hydroxymethyl)azetidin-1-yl]carbonyl}phenyl)-4,4′-bipiperidin-1-yl]-1,1,1-trifluoro-3-oxo-2-phenylpropan-2-ol]
 | 28 | 0.418 | 86 | 1.52 | CC(C)S(=O)(=O)c1ccc(N2CCC(C3CCN(C(=O)[C@](O)(c4ccccc4)C(F)(F)F)CC3)CC2)cc1Cl [Example D-5, (2R)-3-(1′-{3-chloro-4-[(1-methylethyl)sulfonyl]phenyl}-4,4′-bipiperidin-1-yl)-1,1,1-trifluoro-3-oxo-2-phenylpropan-2-ol]
